Experiment [1] concerns the target T1, JAK1 (Homo sapiens, UniProt P23458). The experiment can be described thus: AlphaScreen SureFire IL6-TF-1-JAK1 cell-based assay (pSTAT3 detection). The arrangement: endogenous in cells; host or cells: TF-1 cells. To be noted: TF-1 cells, IL6 30 ng/mL; n=10; read-out: IC50, IL6-stimulated TF-1 JAK1 cell-based assay. The protocol:
AlphaScreen SureFire Protocol […]-(p-Tyr705)-IL6-TF-1-JAK1 Cell-Based Assay
The JAK1 cell based assay described below is used to determine the JAK1 cellular potency of test compounds.
Starve TF-1 cells in DMEM medium with 0.5% […] and 1× Pen/Strep at 37° C. Plate 100K cells per well in BD 96 well black plates with clear bottoms. Maintain the plates at RT for 30-60 minutes before incubating overnight at 37° C. and 5% CO2. Count cells using Vi-Cell counter, using a cell suspension at […] and plated 100 μL/well in […] Biocoat plates (Catalog #354640).
Prepare compounds at 1:3 serial dilutions in DMSO and further dilute into the medium. Test compounds in a range of 10 point concentrations from 20,000 to 1 nM. Add diluted compound to corresponding cell plates. […]
Perform the following steps sequentially: make acceptor mix (activation buffer/reaction buffer/acceptor beads); transfer 4 μL lysate from 96 well plates to 384 well-Proxiplates; add 5 μL acceptor mix to 384 proxiplate plate(s) and seal plates with aluminum seal; shake 1-2 minutes on plate shaker; incubate plate at RT for 2 hr with gentle shaking; make donor mix (donor beads in dilution buffer); add 2 μL donor mix to assay plates; seal plates with aluminum seal; shake 1-2 minutes on plate shaker; incubate at RT for 2 hr with gentle shaking; read plate with Envision; protocol AlphaScreen Surefire 384.

In experiment [2] the target is T1, JAK1. The experiment can be described thus: Human whole blood assay: pSTAT3 (JAK1) in lymphocytes. It is filed as cell-based. The arrangement: endogenous in cells; host or cells: human whole blood, CD4+ lymphocytes. To be noted: HWB. The source says:
Human Whole Blood Assays: Determination of pSTAT3 (JAK1) and pSTAT5 (JAK2) in Lymphocytes and Monocytes
Human whole blood (HWB) assays were developed and validated to determine the JAK1 and JAK2 selectivity of test compounds.
Dilute the test compounds, 10 points, (1:3) in DMSO 100% and a step down in PBS+0.1% BSA. Use tofacitinib as a reference compound in each plate, as well as a maximum signal (stimulated wells) and a minimum signal (no stimulated wells) in order to normalize data. Obtain a pool of HWB from 4 different healthy donors. Plate the blood in a 96 well plate using a Tecan Evo 96w and incubate with test compounds for 1 h at RT. After this time of incubation, stimulate HWB with both IL6 (206-IL, R&D System) and GM-CSF (PHC2015, Life Technologies) for 15 more minutes. […]
The final concentrations in the assay are the following: 100 μM for compounds, 50 μM for tofacitinib, 0.1 μg/mL IL6, 0.038 μg/mL GM-CSF and 1% DMSO. […] Incubate the antibodies for 1 h in dark at RT, then wash cells 2× and read on Cytometer Macsquant (Miltenyi Biotec). Gate the data on CD4+(lymphocytes) and CD4Low CD33Hi (monocytes), to measure the fluorescence from cells expressing pSTAT3 and pSTAT5 respectively. Analyze the data using FlowJo v_10 and the normalize the median of fluorescence versus maximum and minimum signal to determine the IC50s. […]

For a further experiment, the system named is HCC827 xenograft tumor. Nature of the experiment: Efficacy Study in HCC827 Xenograft Tumor Model. It counts as in vivo, mouse. To be noted: oral gavage, 28 days, HCC827 xenograft mice. The protocol:
Efficacy Study in HCC827 Xenograft Tumor Model
The purpose of this assay is to measure the ability of compounds to inhibit tumor growth in the HCC827 xenograft mouse model. Grow HCC827 cells (ATCC# CRL-2868, Lot#59392891) according to ATCC specifications at the lowest possible passage number available. Culture cells and maintain in RPMI-1640 supplemented with 10% FBS and incubate at 37° C. in 5% CO2. Harvest cells from flasks using TryPLE, rinse twice in DPBS, resuspend in HBSS, and mix with BD Biosciences basement membrane matrix (MATRIGEL®) to cell suspension to achieve a 1:1 cell/matrix ratio yielding an inoculation volume of 0.2 ml cell/matrix suspension containing 5e^6 cells. Maintain cell suspensions on ice throughout the inoculation procedure and start implantations within one hour after cell culture harvest. Administer implantations subcutaneously in the right rear flank of female CB17 SCID mice obtained from Harlan (18-20 g). Feed mice Harlan Teklad Protein Extruded 2920X ad libitum and provide water with the rack watering system. Allow the implanted tumor cells to grow as a solid tumor and measure twice a week along with body weight beginning the seventh day after implantation. Determine tumor volumes using the calculation: 0.536*L*W^2. After tumor volume reaches approximately 150-200 mm^3, randomize animals and place into groups containing 5-8 animals each. Formulate the compounds in 1% HEC vehicle containing 0.25% Tween 80 and 0.05% antifoam with 1.1 molar equivalent of methanesulfonic acid to form an in situ salt (1.1 mL of 1N methanesulfonic acid per (insert molecular weight) mg of compound). Store test compound at RT. Formulate compounds once per week, and store at RT. […] Calculate doses based on the most recent group mean body weight. Administer compounds by oral gavage for 28 days either BID or QD depending on dosage.

T1 sequence (P23458 whole entry): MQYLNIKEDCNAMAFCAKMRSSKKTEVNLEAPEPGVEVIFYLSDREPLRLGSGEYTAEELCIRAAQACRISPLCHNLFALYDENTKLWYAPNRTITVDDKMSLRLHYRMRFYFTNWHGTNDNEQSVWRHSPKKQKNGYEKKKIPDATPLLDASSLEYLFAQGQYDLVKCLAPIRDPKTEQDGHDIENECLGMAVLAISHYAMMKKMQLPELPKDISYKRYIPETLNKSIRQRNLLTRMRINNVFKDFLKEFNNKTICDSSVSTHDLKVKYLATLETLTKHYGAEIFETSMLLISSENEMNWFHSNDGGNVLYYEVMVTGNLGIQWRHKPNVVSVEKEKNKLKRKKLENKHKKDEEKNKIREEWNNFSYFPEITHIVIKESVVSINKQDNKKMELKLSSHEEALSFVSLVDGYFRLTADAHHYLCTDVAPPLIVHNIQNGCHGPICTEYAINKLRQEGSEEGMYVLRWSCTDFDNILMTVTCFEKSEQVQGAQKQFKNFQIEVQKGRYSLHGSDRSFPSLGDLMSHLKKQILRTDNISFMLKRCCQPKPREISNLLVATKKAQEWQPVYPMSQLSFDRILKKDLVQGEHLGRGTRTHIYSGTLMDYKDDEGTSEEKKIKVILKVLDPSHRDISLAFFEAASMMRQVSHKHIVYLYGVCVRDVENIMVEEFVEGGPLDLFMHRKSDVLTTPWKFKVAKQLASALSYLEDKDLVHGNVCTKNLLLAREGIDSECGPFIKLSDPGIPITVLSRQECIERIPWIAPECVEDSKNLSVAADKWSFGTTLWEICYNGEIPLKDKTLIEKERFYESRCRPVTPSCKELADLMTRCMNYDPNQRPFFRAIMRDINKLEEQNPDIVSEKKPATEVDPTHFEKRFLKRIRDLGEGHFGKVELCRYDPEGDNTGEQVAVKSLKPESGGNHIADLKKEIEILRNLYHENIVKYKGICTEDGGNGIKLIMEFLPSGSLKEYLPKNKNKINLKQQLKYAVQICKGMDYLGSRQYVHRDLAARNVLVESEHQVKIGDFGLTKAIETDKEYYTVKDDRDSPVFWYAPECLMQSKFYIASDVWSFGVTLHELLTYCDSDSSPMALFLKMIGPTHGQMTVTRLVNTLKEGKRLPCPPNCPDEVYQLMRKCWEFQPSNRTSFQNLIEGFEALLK

For `Cc1cc(Nc2cc(O[C@H]3CC[C@@H](NC[C@@H](O)C(F)(F)F)CC3)cc3c2ncn3C)nn1C` [Example 1, (2R)-3-{[cis-4-({4-[(1,5-Dimethyl-1H-pyrazol-3-yl)amino]-1-methyl-1H-benzimidazol-6-yl}oxy)cyclohexyl]amino}-1,1,1-trifluoropropan-2-ol], the half-inhibitory concentration (IC50) on JAK1 [1] turned out to be 0.087 µM; against JAK1 [2] (IL6 stimulated, CD4+ lymphocytes, n=3) it was 2.4 ± 0.64 µM. Besides, the “potency for JAK1 over JAK2 in a human whole blood assay” value at JAK1 [2] (JAK1 over JAK2) is “approximately 5 ×”. Further, the tumor growth inhibition in the experiment on HCC827 xenograft tumor (30 mg/kg BID) is recorded as 31%. In addition, the tumor regression in the experiment on HCC827 xenograft tumor (60 mg/kg BID) and with HCC827 xenograft tumor (120 mg/kg QD) was 22% in each case.

Usually IC50 stands for the concentration that inhibits the measured activity by half.

The values above are taken from patent US9556153B1, “JAK1 inhibitors” (Eli Lilly and Company, priority 2015, dated 2017).
